“And” between values parts separate entries of the source, which are not always exact repeats. Equal entries are not always repeated.
Test system: 186277-243-T-J2-PDC complex spheroid viability
Assay: Anticancer human tumor 186277-243-T-J2-PDC patient-derived colon adenocarcinoma cell line growth inhibition
Conditions: for viability, T/C: stronger effect = lower value
Outline: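 Complex spheroids of tumor cells with HUVEC and human MSCs, exposed to iadademstat combined with other agents. Each agent tested in half-log steps from near clinical Cmax (else 10 microM top), DMSO ≤0.25%.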

[1] = curve of first compound, second compound 0.1 µM
[2] = curve of first compound, second compound 0.316 µM
[3] = curve of first compound, second compound 1 µM
[4] = curve of first compound, second compound 3.16 µM
[5] = curve of first compound, second compound 10 µM
[6] = second compound 0.1 µM, first compound 0.0316 µM
[7] = second compound 0.1 µM, first compound 0.1 µM
[8] = second compound 0.316 µM, first compound 0.0316 µM
[9] = second compound 0.316 µM, first compound 0.1 µM
[10] = second compound 1 µM, first compound 0.0316 µM
[11] = second compound 1 µM, first compound 0.1 µM
[12] = second compound 3.16 µM, first compound 0.0316 µM
[13] = second compound 3.16 µM, first compound 0.1 µM
[14] = second compound 10 µM, first compound 0.0316 µM
[15] = second compound 10 µM, first compound 0.1 µM
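Further: 7 day exposure to compounds.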
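Wherever viability, T/C is given: 100% = DMSO vehicle control viability.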

## CC1COCCN1c1cc(C2(S(C)(=N)=O)CC2)nc(-c2ccnc3[nH]ccc23)n1 (configuration not stated) + NC1CC1c1ccc(-c2cccc(O)c2)cc1
[1]
  IC50: 1060 nM
[2]
  IC50: 1140 nM
[3]
  IC50: 1270 nM
[4]
  IC50: 1190 nM
[5]
  IC50: 872 nM
[6]
  viability, T/C: 102%
[7]
  viability, T/C: 99.8%
Second compound 0.1 µM, first compound 0.316 µM
  viability, T/C: 99.6%
Second compound 0.1 µM, first compound 1 µM
  viability, T/C: 52.1%
Second compound 0.1 µM, first compound 3.16 µM
  viability, T/C: 9.5%
Second compound 0.1 µM, first compound 10 µM
  viability, T/C: 5.47%
[8]
  viability, T/C: 95.4%
[9]
  viability, T/C: 97.8%
Second compound 0.316 µM, first compound 0.316 µM
  viability, T/C: 92.2%
Second compound 0.316 µM, first compound 1 µM
  viability, T/C: 55%
Second compound 0.316 µM, first compound 3.16 µM
  viability, T/C: 10.5%
Second compound 0.316 µM, first compound 10 µM
  viability, T/C: 5.49%
[10]
  viability, T/C: 108%
[11]
  viability, T/C: 108%
Second compound 1 µM, first compound 0.316 µM
  viability, T/C: 105%
Second compound 1 µM, first compound 1 µM
  viability, T/C: 59.5%
Second compound 1 µM, first compound 3.16 µM
  viability, T/C: 12.5%
Second compound 1 µM, first compound 10 µM
  viability, T/C: 5.36%
[12]
  viability, T/C: 104%
[13]
  viability, T/C: 104%
Second compound 3.16 µM, first compound 0.316 µM
  viability, T/C: 109%
Second compound 3.16 µM, first compound 1 µM
  viability, T/C: 57.5%
Second compound 3.16 µM, first compound 3.16 µM
  viability, T/C: 11.6%
Second compound 3.16 µM, first compound 10 µM
  viability, T/C: 6.19%
[14]
  viability, T/C: 106%
[15]
  viability, T/C: 89.6%
Second compound 10 µM, first compound 0.316 µM
  viability, T/C: 92.7%
Second compound 10 µM, first compound 1 µM
  viability, T/C: 44.3%
Second compound 10 µM, first compound 3.16 µM
  viability, T/C: 8%
Second compound 10 µM, first compound 10 µM
  viability, T/C: 4.85%

## NC1CCC(NC2CC2c2ccccc2)CC1 (configuration not stated)
Compound 0.316 µM
  viability, T/C: 104% and 114%
Compound alone, run of 01/18/2022
  IC50: > 10000 nM

## Nc1ccn(C2OC(CO)C(O)C2(F)F)c(=O)n1 (configuration not stated) + NC1CC1c1ccc(-c2cccc(O)c2)cc1
[1]
  IC50: 2.41 nM
[2]
  IC50: 2.18 nM
[3]
  IC50: 2.52 nM
[4]
  IC50: 2.31 nM
[5]
  IC50: 2.34 nM
Second compound 0.1 µM, first compound 0.000949 µM
  viability, T/C: 112%
Second compound 0.1 µM, first compound 0.003 µM
  viability, T/C: 35.5%
Second compound 0.1 µM, first compound 0.00949 µM
  viability, T/C: 14.2%
Second compound 0.1 µM, first compound 0.03 µM
  viability, T/C: 11.6%
Second compound 0.1 µM, first compound 0.0949 µM
  viability, T/C: 12.2%
Second compound 0.1 µM, first compound 0.3 µM
  viability, T/C: 13.4%
Second compound 0.316 µM, first compound 0.000949 µM
  viability, T/C: 103%
Second compound 0.316 µM, first compound 0.003 µM
  viability, T/C: 29.9%
Second compound 0.316 µM, first compound 0.00949 µM
  viability, T/C: 14.5%
Second compound 0.316 µM, first compound 0.03 µM
  viability, T/C: 12%
Second compound 0.316 µM, first compound 0.0949 µM
  viability, T/C: 12.2%
Second compound 0.316 µM, first compound 0.3 µM
  viability, T/C: 12.8%
Second compound 1 µM, first compound 0.000949 µM
  viability, T/C: 116%
Second compound 1 µM, first compound 0.003 µM
  viability, T/C: 38.4%
Second compound 1 µM, first compound 0.00949 µM
  viability, T/C: 14.9%
Second compound 1 µM, first compound 0.03 µM
  viability, T/C: 12.2%
Second compound 1 µM, first compound 0.0949 µM
  viability, T/C: 11.9%
Second compound 1 µM, first compound 0.3 µM
  viability, T/C: 13.6%
Second compound 3.16 µM, first compound 0.000949 µM
  viability, T/C: 103%
Second compound 3.16 µM, first compound 0.003 µM
  viability, T/C: 34.3%
Second compound 3.16 µM, first compound 0.00949 µM
  viability, T/C: 15.8%
Second compound 3.16 µM, first compound 0.03 µM
  viability, T/C: 11.7%
Second compound 3.16 µM, first compound 0.0949 µM
  viability, T/C: 13.8%
Second compound 3.16 µM, first compound 0.3 µM
  viability, T/C: 13.4%
Second compound 10 µM, first compound 0.000949 µM
  viability, T/C: 98.2%
Second compound 10 µM, first compound 0.003 µM
  viability, T/C: 36.7%
Second compound 10 µM, first compound 0.00949 µM
  viability, T/C: 15.5%
Second compound 10 µM, first compound 0.03 µM
  viability, T/C: 11.2%
Second compound 10 µM, first compound 0.0949 µM
  viability, T/C: 12.7%
Second compound 10 µM, first compound 0.3 µM
  viability, T/C: 13.5%

## CC(C)CC(NC(=O)CNC(=O)c1cc(Cl)ccc1Cl)B1OC(=O)CC(CC(=O)O)(C(=O)O)O1 (configuration not stated) + NC1CCC(NC2CC2c2ccccc2)CC1
[1]
  IC50: 20.5 nM
[2]
  IC50: 20.3 nM
[3]
  IC50: 18.6 nM
[4]
  IC50: 19.6 nM
[5]
  IC50: 19.5 nM
Second compound 0.1 µM, first compound 0.000316 µM
  viability, T/C: 102%
Second compound 0.1 µM, first compound 0.001 µM
  viability, T/C: 119%
Second compound 0.1 µM, first compound 0.00316 µM
  viability, T/C: 115%
Second compound 0.1 µM, first compound 0.01 µM
  viability, T/C: 98.8%
[6]
  viability, T/C: 20.6%
[7]
  viability, T/C: 1.64%
Second compound 0.316 µM, first compound 0.000316 µM
  viability, T/C: 118%
Second compound 0.316 µM, first compound 0.001 µM
  viability, T/C: 114%
Second compound 0.316 µM, first compound 0.00316 µM
  viability, T/C: 117%
Second compound 0.316 µM, first compound 0.01 µM
  viability, T/C: 96.6%
[8]
  viability, T/C: 20.7%
[9]
  viability, T/C: 1.44%
Second compound 1 µM, first compound 0.000316 µM
  viability, T/C: 113%
Second compound 1 µM, first compound 0.001 µM
  viability, T/C: 114%
Second compound 1 µM, first compound 0.00316 µM
  viability, T/C: 111%
Second compound 1 µM, first compound 0.01 µM
  viability, T/C: 87.3%
[10]
  viability, T/C: 18.3%
[11]
  viability, T/C: 1.22%
Second compound 3.16 µM, first compound 0.000316 µM
  viability, T/C: 112%
Second compound 3.16 µM, first compound 0.001 µM
  viability, T/C: 107%
Second compound 3.16 µM, first compound 0.00316 µM
  viability, T/C: 110%
Second compound 3.16 µM, first compound 0.01 µM
  viability, T/C: 96.5%
[12]
  viability, T/C: 17.1%
[13]
  viability, T/C: 1.04%
Second compound 10 µM, first compound 0.000316 µM
  viability, T/C: 105%
Second compound 10 µM, first compound 0.001 µM
  viability, T/C: 111%
Second compound 10 µM, first compound 0.00316 µM
  viability, T/C: 111%
Second compound 10 µM, first compound 0.01 µM
  viability, T/C: 98.5%
[14]
  viability, T/C: 15.1%
[15]
  viability, T/C: 1.05%

Source: PubChem BioAssay AID1918933 (Molecular Pharmacology Branch, DTP, NCI, 2023)
